Consider 6 compounds from PMC9090410 (Journal of Enzyme Inhibition and Medicinal Chemistry, 2022).

The test system of assay [1] is HDACs from HeLa cell lysates. Format: biochemical. To be noted: for pIC50: HeLa cell extract, fluorometric assay, incubating for 8 h, standard deviation in parentheses, read-out: HeLa Cell Lysate IC50. On the procedure: (§1) Once prepared, the compounds were screened for inhibition of HDAC activity from the cell lysates of HeLa cells and the recombinant isoforms HDAC3 and HDAC8. […]
(§2) then added followed by further incubation for 10 min at 25 °C. The enzyme activities was measured based on the fluorescence intensity at excitation 350-380 nm and emission 440-480 nm in a plate reader. A control set of data without the presence of inhibitor was acquired using 45 µL of buffer.
(§3) Inhibitors 1-7 were screened using a commercially available In Situ Histone Deacetylase Activity […]
(§4) divergence being the 8 hr incubation time.

The next assay addresses T1, Recombinant HDAC 8 (Homo sapiens, UniProt Q9BY41).
T1 construct: purchased not specified (Fisher Scientific, Sigma-Aldrich or Chem-Impex are named for all reagents)
T1 sequence (Q9BY41 1-377): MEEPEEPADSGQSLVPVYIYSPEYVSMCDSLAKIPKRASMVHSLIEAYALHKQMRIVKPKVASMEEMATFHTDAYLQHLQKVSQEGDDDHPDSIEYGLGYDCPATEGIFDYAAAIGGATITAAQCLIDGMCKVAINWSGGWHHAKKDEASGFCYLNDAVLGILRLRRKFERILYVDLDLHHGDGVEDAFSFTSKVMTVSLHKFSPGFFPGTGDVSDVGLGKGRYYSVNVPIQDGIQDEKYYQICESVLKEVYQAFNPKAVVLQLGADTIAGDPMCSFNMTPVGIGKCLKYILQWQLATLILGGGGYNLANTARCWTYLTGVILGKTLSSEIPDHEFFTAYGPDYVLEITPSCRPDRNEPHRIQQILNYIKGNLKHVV
Briefly: Recombinant HDAC8 inhibition, fluorometric assay, 8 h incubation. Format: biochemical. As to conditions: for pIC50: recombinant HDAC8, fluorometric assay, incubating for 8 h, standard deviation in parentheses. On the procedure: as §1, §2, §3, §4

For another assay, the target named is T2, Recombinant HDAC 3 (Homo sapiens, UniProt O15379).
T2 construct: purchased not specified (Fisher Scientific, Sigma-Aldrich or Chem-Impex are named for all reagents)
Briefly: Recombinant HDAC3 inhibition, fluorometric assay, 8 h incubation. Format: biochemical. To be noted: for pIC50: recombinant HDAC3, fluorometric assay, incubating for 8 h, standard deviation in parentheses. The protocol:
as §1, §2, §3, §4

A further assay has as its system HeLa cell lysates. As to conditions: 10 h incubation time; ref Kapustin et al. (23); read-out: IC50 Hela cell lysate; cited from earlier work.
The mark [2] stands for this setting: time course enzyme inhibition assay, inhibitor at 100 μM.

A word on the pIC50: it is the IC50 on a negative log10 scale, so that one unit is a factor of ten.

Structures are written as SMILES. pIC50: −log10 of the molar value.

T2 sequence (O15379 whole entry): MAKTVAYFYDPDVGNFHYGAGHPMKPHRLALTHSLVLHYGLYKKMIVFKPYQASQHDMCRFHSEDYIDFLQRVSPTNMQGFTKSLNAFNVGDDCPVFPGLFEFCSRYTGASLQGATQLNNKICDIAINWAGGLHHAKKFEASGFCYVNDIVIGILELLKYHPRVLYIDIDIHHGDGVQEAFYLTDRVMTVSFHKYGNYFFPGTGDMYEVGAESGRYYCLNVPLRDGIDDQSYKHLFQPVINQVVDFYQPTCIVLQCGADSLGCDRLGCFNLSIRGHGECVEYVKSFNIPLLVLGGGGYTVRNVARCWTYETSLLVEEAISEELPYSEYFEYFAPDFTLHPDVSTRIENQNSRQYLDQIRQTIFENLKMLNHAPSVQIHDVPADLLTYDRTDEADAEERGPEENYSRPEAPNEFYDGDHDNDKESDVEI
T2 sequence (Q9Y618 395-489 partner limits assumed): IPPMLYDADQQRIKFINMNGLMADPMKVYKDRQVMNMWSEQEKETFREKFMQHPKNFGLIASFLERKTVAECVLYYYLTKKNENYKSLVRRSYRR

For `O=C(CCCCCNP(=O)(O)O)Nc1ccccc1` [Compound 2], the pIC50 in assay [1] is 4.15; at Recombinant HDAC 8, 3.89; at Recombinant HDAC 3, 3.62. The “Incubation time of optimal inhibition, HeLa cell lysate” value in assay [1] (setting [2]) is reported as 8 h. Besides, the “Incubation time of optimal inhibition, HDAC 8” value on Recombinant HDAC 8 (setting [2]) worked out at 8 h. The “Incubation time of optimal inhibition, HDAC 3” value at Recombinant HDAC 3 (setting [2]) was 4 h.
On to `O=C(CCCCOP(=O)(O)O)Nc1ccccc1` [Compound 4], for which, in assay [1], the pIC50 is 2.66.
Turning to `O=C(CCCCCOP(=O)(O)O)Nc1ccccc1` [Compound 5], the pIC50 in assay [1] was 4.22; at Recombinant HDAC 8 it was 3.75; at Recombinant HDAC 3, 3.16.
As for `O=C(CCCCCCOP(=O)(O)O)Nc1ccccc1` [Compound 6], in assay [1], the pIC50 was 2.41.
On to `O=C(CCCCCOP(O)(O)=S)Nc1ccccc1` [Compound 7], for which the figures for the pIC50 (in assay [1]; on Recombinant HDAC 8; on Recombinant HDAC 3) were 4.30, 4.31 and 3.99, respectively.
With `CP(=O)(O)CCCCCC(=O)Nc1ccccc1` [PA3], in the assay on HeLa cell lysates, the pIC50 is 2.21.
